Measured values as given in patent US9914737B2, “Triazolopyrimidinone or triazolopyridinone derivatives, and use thereof” (ST PHARM CO., LTD., priority 2014, dated 2018).
Structures can show the parent of a compound that is named as a salt.

biological target: T1, tankyrase 1 (Homo sapiens, UniProt O95271); assay: Analysis of activity of tankyrase 1 (Trevigen kit, ELISA absorbance at 450 nm); format: biochemical; conditions: not given
T1 construct: purchased Trevigen 4700-096-K
T1 sequence (O95271 1-1327): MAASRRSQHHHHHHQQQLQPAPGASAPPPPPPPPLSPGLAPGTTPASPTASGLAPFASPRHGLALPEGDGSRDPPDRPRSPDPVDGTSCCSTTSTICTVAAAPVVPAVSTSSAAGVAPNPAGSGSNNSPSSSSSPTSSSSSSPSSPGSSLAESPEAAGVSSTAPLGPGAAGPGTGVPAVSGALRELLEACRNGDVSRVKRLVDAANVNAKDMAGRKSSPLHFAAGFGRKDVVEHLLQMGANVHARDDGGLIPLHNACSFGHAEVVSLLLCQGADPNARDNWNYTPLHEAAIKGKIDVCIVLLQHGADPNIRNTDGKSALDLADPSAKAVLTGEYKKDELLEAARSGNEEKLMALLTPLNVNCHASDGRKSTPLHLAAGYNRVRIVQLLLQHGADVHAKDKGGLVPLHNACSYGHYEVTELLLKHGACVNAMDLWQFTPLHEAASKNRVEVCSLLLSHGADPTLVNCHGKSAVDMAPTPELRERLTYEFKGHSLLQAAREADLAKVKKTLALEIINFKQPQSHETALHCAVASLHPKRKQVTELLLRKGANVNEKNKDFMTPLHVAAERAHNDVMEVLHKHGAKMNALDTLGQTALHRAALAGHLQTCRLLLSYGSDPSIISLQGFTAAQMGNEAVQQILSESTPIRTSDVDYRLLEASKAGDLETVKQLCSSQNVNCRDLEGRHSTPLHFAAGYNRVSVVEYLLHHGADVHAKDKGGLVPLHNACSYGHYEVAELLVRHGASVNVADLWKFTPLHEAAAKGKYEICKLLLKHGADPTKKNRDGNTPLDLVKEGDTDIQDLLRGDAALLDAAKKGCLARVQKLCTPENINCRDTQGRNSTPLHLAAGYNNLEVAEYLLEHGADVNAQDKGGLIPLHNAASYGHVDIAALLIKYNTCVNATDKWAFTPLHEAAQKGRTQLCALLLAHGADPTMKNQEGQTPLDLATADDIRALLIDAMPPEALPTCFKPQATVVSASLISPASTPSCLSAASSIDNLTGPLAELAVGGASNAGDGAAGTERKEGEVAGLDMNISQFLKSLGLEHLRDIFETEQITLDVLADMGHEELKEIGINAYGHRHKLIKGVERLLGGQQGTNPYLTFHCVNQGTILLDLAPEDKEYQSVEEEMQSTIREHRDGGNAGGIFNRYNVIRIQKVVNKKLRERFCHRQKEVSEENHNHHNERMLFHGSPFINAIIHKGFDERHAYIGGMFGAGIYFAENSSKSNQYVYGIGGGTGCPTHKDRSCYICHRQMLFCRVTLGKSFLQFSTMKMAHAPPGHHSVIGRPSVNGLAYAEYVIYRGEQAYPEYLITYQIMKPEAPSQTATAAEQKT
Method: Activities of novel compounds synthesized according to Examples 1 to 72 against tankyrase 1 were analyzed using a Trevigen kit (Cat. No. 4700-096-K). Poly PAR histone protein-coated 96-well plate, anti-PAR monoclonal antibody and goat anti-mouse IgG-HRP were used for measurement of absorbance by ELISA method. Specifically, 20× I-PAR assay buffer was diluted to 1× by adding water, and 50 μL of the diluted buffer was added to each well of the 96-well plate followed by reacting at rt for 30 min. Then, the supernatant was completely removed from each well and 10 μL of 1× I-PAR assay buffer and 15 μL of assay substrate were added to each well along with 1 μL of a 50× solution of inhibitors to be tested, which were the compounds obtained in the Examples 1 to 72. 10 mUnits/μL of tankyrase 1 enzyme was diluted 50-fold with 1× I-PAR assay buffer and 25 μL of the diluted enzyme was added to each well and reacted while stirring at rt for 30 min. One without any compound of the present invention was used as a positive control and another containing 1× I-PAR assay buffer with the same volume instead of tankyrase 1 enzyme was used as a negative control. Upon completion of the reaction, 200 μL of PBSX, which was prepared by adding 0.1% triton X-100 to PBS, was added and removed and this washing process was repeated twice. Washing was repeated twice more using PBS in the same manner. 5× antibody diluent was diluted with distilled water to 1× concentration, 50 μL of the diluted goat anti-mouse IgG-HRP to 1/2000 was added to each well and reacted while stirring at rt for 30 min. Washes were carried out twice using PBSX and PBS, respectively. After adding 50 μL of TACS-sapphire to each well of the plate, the plate was blocked from light to react for 10 min to 15 min and the color of the reaction solution turned blue. To stop the reaction, 50 μL of 0.2N HCl was added to turn the solution yellow. Finally, the absorbance of the resulting solution was measured at 450 nm.

IC50	SMILES
29.9 nM	COCCOc1cc(F)c(N2CCN(c3nc4c(nnn4C)c(=O)[nH]3)CC2)c(F)c1 [compound 2, 5-(4-(2,6-Difluoro-4-(2-methoxyethoxy)phenyl)piperazin-1-yl)-3-methyl-3H-[1,2,3]triazolo[4,5-d]pyrimidin-7(6H)-one]
49.7 nM	Cn1nnc2c(=O)[nH]c(N3CCN(c4c(F)cc(F)cc4F)CC3)nc21 [compound 22, 3-Methyl-5-(4-(2,4,6-trifluorophenyl)piperazin-1-yl)-3H-[1,2,3]triazolo[4,5-d]pyrimidin-7(6H)-one]
8.9 nM	Cn1nnc2c(=O)[nH]c(N3CCN(c4c(F)cccc4F)CC3)nc21 [compound 21, 5-(4-(2,6-Difluorophenyl)piperazin-1-yl)-3-methyl-3H-[1,2,3]triazolo[4,5-d]pyrimidin-7(6H)-one]
24.7 nM	Cn1nnc2c(=O)[nH]c(N3CCN(c4c(F)cc(OC5COC5)cc4F)CC3)nc21 [compound 15, 5-(4-(2,6-Difluoro-4-(oxetan-3-yloxy)phenyl)piperazin-1-yl)-3-methyl-3H-[1,2,3]triazolo[4,5-d]pyrimidin-7(6H)-one]

same assay, conditions: tankyrase 1 enzyme, Trevigen kit Cat. No. 4700-096-K, 30 min at rt; read-out: TNKS1 (IC50)

SMILES	IC50
Cn1nnc2c(=O)[nH]c(N3CCN(c4c(F)cc(OCCCN5CCCCC5)cc4F)CC3)nc21 [compound 33, 5-(4-(2,6-Difluoro-4-(3-(piperidin-1-yl)propoxy)phenyl)piperazin-1-yl)-3-methyl-3H-[1,2,3]triazolo[4,5-d]pyrimidin-7(6H)-one]	51.3 nM
Cn1nnc2c(=O)[nH]c(N3CCN(c4c(F)cc(OCCN5CCCC5)cc4F)CC3)cc21 [compound 67, 6-(4-(2,6-Difluoro-4-(2-(pyrrolidin-1-yl)ethoxy)phenyl)piperazin-1-yl)-1-methyl-1H-[1,2,3]triazolo[4,5-c]pyridin-4(5H)-one]	18.6 nM
C[C@H](N)C(=O)OCCOc1cc(F)c(N2CCN(c3nc4c(nnn4C)c(=O)[nH]3)CC2)c(F)c1 [compound 11, (S)-2-(3,5-difluoro-4-(4-(3-methyl-7-oxo-6,7-dihydro-3H-[1,2,3]triazolo[4,5-d]pyrimidin-5-yl)piperazin-1-yl)phenoxy)ethyl2-aminopropanoate hydrochloride]	14.5 nM
COCCOc1cc(F)c(C2(O)CCN(c3nc4c(nnn4C)c(=O)[nH]3)CC2)c(F)c1 [compound 25, 5-(4-(2,6-Difluoro-4-(2-methoxyethoxy)phenyl)-4-hydroxypiperidin-1-yl)-3-methyl-3H-[1,2,3]triazolo[4,5-d]pyrimidin-7(6H)-one]	33.1 nM
COCCOc1cc(F)c(C2=CCN(c3nc4c(nnn4C)c(=O)[nH]3)CC2)c(F)c1 [compound 44, 5-(4-(2,6-Difluoro-4-(2-methoxyethoxy)phenyl)-5,6-dihydropyridin-1(2H)-yl)-3-methyl-3H-[1,2,3]triazolo[4,5-d]pyrimidin-7(6H)-one]	52.9 nM
Cn1nnc2c(=O)[nH]c(N3CCN(c4c(F)cc(OCCN)cc4F)CC3)nc21 [compound 37, 5-(4-(4-(2-Aminoethoxy)-2,6-difluorophenyl)piperazin-1-yl)-3-methyl-3H-[1,2,3]triazolo[4,5-d]pyrimidin-7(6H)-one]	28.1 nM
CC(O)c1cc(F)c(N2CCN(c3nc4c(nnn4C)c(=O)[nH]3)CC2)c(F)c1 (stereo not shown) [compound 17, 5-(4-(2,6-Difluoro-4-(1-hydroxyethyl)phenyl)piperazin-1-yl)-3-methyl-3H-[1,2,3]triazolo[4,5-d]pyrimidin-7(6H)-one]	17.6 nM
Cn1nnc2c(=O)[nH]c(N3CCN(c4c(F)cc(CN5CCOCC5)cc4F)CC3)nc21 [compound 13, 5-(4-(2,6-Difluoro-4-(morpholinomethyl)phenyl)piperazin-1-yl)-3-methyl-3H-[1,2,3]triazolo[4,5-d]pyrimidin-7(6H)-one]	28 nM
COCCCc1cc(F)c(N2CCN(c3nc4c(nnn4C)c(=O)[nH]3)CC2)c(F)c1 [compound 40, 5-(4-(2,6-Difluoro-4-(3-methoxypropyl)phenyl)piperazin-1-yl)-3-methyl-3H-[1,2,3]triazolo[4,5-d]pyrimidin-7(6H)-one]	93.1 nM
Cn1nnc2c(=O)[nH]c(N3CCN(c4c(F)cc(OCC(O)CO)cc4F)CC3)cc21 (stereo not shown) [compound 59, 6-(4-(4-(2,3-Dihydroxypropoxy)-2,6-difluorophenyl)piperazin-1-yl)-1-methyl-1H-[1,2,3]triazolo[4,5-c]pyridin-4(5H)-one]	16 nM
Cn1nnc2c(=O)[nH]c(N3CCN(c4c(F)cc(OCc5ccccc5)cc4F)CC3)nc21 [compound 3, 5-(4-(4-(Benzyloxy)-2,6-difluorophenyl)piperazin-1-yl)-3-methyl-3H-[1,2,3]triazolo[4,5-d]pyrimidin-7(6H)-one]	207 nM

Second part, the compound after the results:

IC50	SMILES
67.7 nM	COCCN(CCOC)c1cc(F)c(N2CCN(c3nc4c(nnn4C)c(=O)[nH]3)CC2)c(F)c1 [compound 34, 5-(4-(4-(Bis(2-methoxyethyl)amino)-2,6-difluorophenyl)piperazin-1-yl)-3-methyl-3H-[1,2,3]triazolo[4,5-d]pyrimidin-7(6H)-one]
50.9 nM	Cn1nnc2c(=O)[nH]c(N3CCN(c4c(F)cc(OCCN5CCC(C)(O)CC5)cc4F)CC3)nc21 [compound 43, 5-(4-(2,6-Difluoro-4-(2-(4-hydroxy-4-methylpiperidin-1-yl)ethoxy)phenyl)piperazin-1-yl)-3-methyl-3H-[1,2,3]triazolo[4,5-d]pyrimidin-7(6H)-one]
37.6 nM	COCCOc1cc(F)c(C2CCN(c3nc4c(nnn4C)c(=O)[nH]3)CC2)c(F)c1 [compound 45, 5-(4-(2,6-Difluoro-4-(2-methoxyethoxy)phenyl)piperidin-1-yl)-3-methyl-3H-[1,2,3]triazolo[4,5-d]pyrimidin-7(6H)-one]
28.2 nM	CN1CCN(Cc2cc(F)c(N3CCN(c4cc5c(nnn5C)c(=O)[nH]4)CC3)c(F)c2)CC1 [compound 61, 6-(4-(2,6-Difluoro-4-((4-methylpiperazin-1-yl)methyl)phenyl)piperazin-1-yl)-1-methyl-1H-[1,2,3]triazolo[4,5-c]pyridin-4(5H)-one]
22.7 nM	Cn1nnc2c(=O)[nH]c(N3CCN(c4c(F)cc(OCCN5CCC(N)CC5)cc4F)CC3)nc21 [compound 39, 5-(4-(4-(2-(4-Aminopiperidin-1-yl)ethoxy)-2,6-difluorophenyl)piperazin-1-yl)-3-methyl-3H-[1,2,3]triazolo[4,5-d]pyrimidin-7(6H)-one]
15.6 nM	Cn1nnc2c(=O)[nH]c(N3CCN(c4c(F)cc(OCC(=O)N5CCCC5)cc4F)CC3)cc21 [compound 70, 6-(4-(2,6-Difluoro-4-(2-oxo-2-(pyrrolidin-1-yl)ethoxy)phenyl)piperazin-1-yl)-1-methyl-1H-[1,2,3]triazolo[4,5-c]pyridin-4(5H)-one]
14.2 nM	Cn1nnc2c(=O)[nH]c(N3CCN(c4c(F)cc(OCCN5CCCCC5)cc4F)CC3)nc21 [compound 5, 5-(4-(2,6-Difluoro-4-(2-(piperidin-1-yl)ethoxy)phenyl)piperazin-1-yl)-3-methyl-3H-[1,2,3]triazolo[4,5-d]pyrimidin-7(6H)-one]
